Data published in patent publication US20150344540A1, “NOVEL GLP-1 RECEPTOR AGONISTS WITH CHOLESTEROL EFFLUX ACTIVITY” (NOVO NORDISK A/S, priority 2012, published 2015).
Where a SMILES comes first, the peptide text is derived from it. [ ]: non-standard residue; d: D form. Aib = CC(C)(N)C(=O)O

Each molecule was assayed on Mouse monocyte/macrophage cell line, RAW 264.7 (assay: Cholesterol efflux assay (3H-cholesterol, macrophage cell line)). Conditions: RAW 264.7, 4 hrs incubation, 0.1% human serum albumin, ABCA1-mediated efflux.
Type: cell-based
In the case of `CC[C@H](C)[C@H](NC(=O)[C@H](Cc1ccccc1)NC(=O)[C@H](CCC(=O)O)NC(=O)[C@H](CCCCN)NC(=O)[C@@H](NC(=O)[C@H](CCCCN)NC(=O)[C@H](CCC(=O)O)NC(=O)CNC(=O)[C@H](CCC(=O)O)NC(=O)[C@H](CC(C)C)NC(=O)[C@H](Cc1ccc(O)cc1)NC(=O)[C@H](CO)NC(=O)[C@H](CO)NC(=O)[C@@H](NC(=O)[C@H](CC(=O)O)NC(=O)[C@H](CO)NC(=O)[C@@H](NC(=O)[C@H](Cc1ccccc1)NC(=O)[C@@H](NC(=O)CNC(=O)[C@H](CCC(=O)O)NC(=O)C(C)(C)NC(=O)[C@@H](N)Cc1c[nH]cn1)[C@@H](C)O)[C@@H](C)O)C(C)C)C(C)C)C(=O)N[C@@H](C)C(=O)N[C@@H](Cc1c[nH]c2ccccc12)C(=O)N[C@@H](CC(C)C)C(=O)N[C@H](C(=O)N[C@@H](CCC(=O)O)C(=O)N[C@@H](CCCCN)C(=O)NC(C)(C)C(=O)N[C@@H](CCCCN)C(=O)N[C@@H](CCC(=O)O)C(=O)N[C@@H](Cc1ccccc1)C(=O)N[C@@H](CC(C)C)C(N)=O)C(C)C` [Compound 60, [Aib8,Glu23,Lys24,Val25,Glu34,Lys35,Aib36,Lys37]-GLP-1-(7-37)-peptidyl-Glu-Phe-Leu amide] (H-H[Aib]EGTFTSDVSSYLEGEKVKEFIAWLVEK[Aib]KEFL-NH2), the “4 h Cholesterol Efflux Emax” value is reported as 111%. With `CC[C@H](C)[C@H](NC(=O)[C@H](Cc1ccccc1)NC(=O)[C@H](CCC(=O)O)NC(=O)[C@H](CCCCN)NC(=O)[C@@H](NC(=O)[C@H](C)NC(=O)[C@H](CCC(=O)O)NC(=O)CNC(=O)[C@H](CCC(=O)O)NC(=O)[C@H](CC(C)C)NC(=O)[C@H](Cc1ccc(O)cc1)NC(=O)[C@H](CO)NC(=O)[C@H](CO)NC(=O)[C@@H](NC(=O)[C@H](CC(=O)O)NC(=O)[C@H](CO)NC(=O)[C@@H](NC(=O)[C@H](Cc1ccccc1)NC(=O)[C@@H](NC(=O)CNC(=O)[C@H](CCC(=O)O)NC(=O)C(C)(C)NC(=O)[C@@H](N)Cc1c[nH]cn1)[C@@H](C)O)[C@@H](C)O)C(C)C)C(C)C)C(=O)N[C@@H](C)C(=O)N[C@@H](Cc1c[nH]c2ccccc12)C(=O)N[C@@H](CC(C)C)C(=O)N[C@H](C(=O)N[C@@H](CCCCN)C(=O)N[C@@H](CCCCN)C(=O)NC(C)(C)C(=O)N[C@@H](CCCCN)C(=O)N[C@@H](CCC(=O)O)C(=O)N[C@@H](Cc1ccccc1)C(=O)N[C@@H](CC(C)C)C(N)=O)C(C)C` [Compound 9, [Aib8,Glu23,Val25,Lys35,Aib36,Lys37]-GLP-1-(7-37)-peptidyl-Glu-Phe-Leu amide] (H-H[Aib]EGTFTSDVSSYLEGEAVKEFIAWLVKK[Aib]KEFL-NH2) the “4 h Cholesterol Efflux Emax” value was 87%. With `CC[C@H](C)[C@H](NC(=O)[C@H](Cc1ccccc1)NC(=O)[C@H](CCC(=O)O)NC(=O)[C@H](CCCCN)NC(=O)[C@@H](NC(=O)[C@H](C)NC(=O)[C@H](CCC(=O)O)NC(=O)CNC(=O)[C@H](CCC(=O)O)NC(=O)[C@H](CC(C)C)NC(=O)[C@H](Cc1ccc(O)cc1)NC(=O)[C@H](CO)NC(=O)[C@H](CO)NC(=O)[C@@H](NC(=O)[C@H](CC(=O)O)NC(=O)[C@H](CO)NC(=O)[C@@H](NC(=O)[C@H](Cc1ccccc1)NC(=O)[C@@H](NC(=O)CNC(=O)[C@H](CCC(=O)O)NC(=O)C(C)(C)NC(=O)[C@@H](N)Cc1c[nH]cn1)[C@@H](C)O)[C@@H](C)O)C(C)C)C(C)C)C(=O)N[C@@H](C)C(=O)N[C@@H](Cc1c[nH]c2ccccc12)C(=O)N[C@@H](CC(C)C)C(=O)N[C@@H](CC(C)C)C(=O)N[C@@H](CCC(=O)O)C(=O)N[C@@H](CCCCN)C(=O)NC(C)(C)C(=O)N[C@@H](CCCCN)C(=O)N[C@@H](CCC(=O)O)C(=O)N[C@@H](Cc1c[nH]c2ccccc12)C(=O)N[C@@H](CC(C)C)C(N)=O` [Compound 89, [Aib8,Glu23,Val25,Leu33,Glu34,Lys35,Aib36,Lys37]-GLP-1-(7-37)-peptidyl-Glu-Trp-Leu amide] (H-H[Aib]EGTFTSDVSSYLEGEAVKEFIAWLLEK[Aib]KEWL-NH2) the “4 h Cholesterol Efflux Emax” value was 102%. For `CC[C@H](C)[C@H](NC(=O)[C@H](Cc1ccccc1)NC(=O)[C@H](CCC(=O)O)NC(=O)[C@H](CCCNC(=N)N)NC(=O)[C@@H](NC(=O)[C@H](C)NC(=O)[C@H](CCC(=O)O)NC(=O)CNC(=O)[C@H](CCC(=O)O)NC(=O)[C@H](CC(C)C)NC(=O)[C@H](Cc1ccc(O)cc1)NC(=O)[C@H](CO)NC(=O)[C@H](CO)NC(=O)[C@@H](NC(=O)[C@H](CC(=O)O)NC(=O)[C@H](CO)NC(=O)[C@@H](NC(=O)[C@H](Cc1ccccc1)NC(=O)[C@@H](NC(=O)CNC(=O)[C@H](CCC(=O)O)NC(=O)C(C)(C)NC(=O)[C@@H](N)Cc1c[nH]cn1)[C@@H](C)O)[C@@H](C)O)C(C)C)C(C)C)C(=O)N[C@@H](C)C(=O)N[C@@H](Cc1c[nH]c2ccccc12)C(=O)N[C@@H](CC(C)C)C(=O)N[C@H](C(=O)N[C@@H](CCC(=O)O)C(=O)N[C@@H](CCCNC(=N)N)C(=O)NC(C)(C)C(=O)N[C@@H](CCCCN)C(=O)N[C@@H](CCC(=O)O)C(=O)N[C@@H](Cc1ccccc1)C(=O)N[C@@H](CC(C)C)C(N)=O)C(C)C` [Compound 19, [Aib8,Glu23,Val25,Arg26,Glu34,Arg35,Aib36,Lys37]-GLP-1-(7-37)-peptidyl-Glu-Phe-Leu amide] (H-H[Aib]EGTFTSDVSSYLEGEAVREFIAWLVER[Aib]KEFL-NH2), the “4 h Cholesterol Efflux Emax” value was 83%. For `CC[C@H](C)[C@H](NC(=O)[C@H](Cc1ccccc1)NC(=O)[C@H](CCC(=O)O)NC(=O)[C@H](CCCCN)NC(=O)[C@@H](NC(=O)[C@H](C)NC(=O)[C@H](CCC(=O)O)NC(=O)CNC(=O)[C@H](CCC(=O)O)NC(=O)[C@H](CC(C)C)NC(=O)[C@H](Cc1ccc(O)cc1)NC(=O)[C@H](CO)NC(=O)[C@H](CO)NC(=O)[C@@H](NC(=O)[C@H](CC(=O)O)NC(=O)[C@H](CO)NC(=O)[C@@H](NC(=O)[C@H](Cc1ccccc1)NC(=O)[C@@H](NC(=O)CNC(=O)[C@H](CCC(=O)O)NC(=O)C(C)(C)NC(=O)[C@@H](N)Cc1c[nH]cn1)[C@@H](C)O)[C@@H](C)O)C(C)C)C(C)C)C(=O)N[C@@H](C)C(=O)N[C@@H](Cc1c[nH]c2ccccc12)C(=O)N[C@@H](CC(C)C)C(=O)N[C@H](C(=O)N[C@@H](CCC(=O)O)C(=O)N[C@@H](CCCCN)C(=O)N[C@H](C(=O)N[C@@H](CCCCN)C(=O)N[C@@H](CC(=O)O)C(=O)N[C@@H](Cc1ccccc1)C(=O)N[C@@H](CC(C)C)C(N)=O)C(C)C)C(C)C` [Compound 114, [Aib8,Glu23,Val25,Glu34,Lys35,Val36,Lys37]-GLP-1-(7-37)-peptidyl-Asp-Phe-Leu amide] (H-H[Aib]EGTFTSDVSSYLEGEAVKEFIAWLVEKVKDFL-NH2), the “4 h Cholesterol Efflux Emax” value was 103%. With `CC[C@H](C)[C@H](NC(=O)[C@H](Cc1ccccc1)NC(=O)[C@H](CCC(=O)O)NC(=O)[C@H](CCCCN)NC(=O)[C@H](C)NC(=O)[C@H](C)NC(=O)[C@H](CCC(N)=O)NC(=O)CNC(=O)[C@H](CCC(=O)O)NC(=O)[C@H](CC(C)C)NC(=O)[C@H](Cc1ccc(O)cc1)NC(=O)[C@H](CO)NC(=O)[C@H](CO)NC(=O)[C@@H](NC(=O)[C@H](CC(=O)O)NC(=O)[C@H](CO)NC(=O)[C@@H](NC(=O)[C@H](Cc1ccccc1)NC(=O)[C@@H](NC(=O)CNC(=O)[C@H](CCC(=O)O)NC(=O)C(C)(C)NC(=O)[C@@H](N)Cc1c[nH]cn1)[C@@H](C)O)[C@@H](C)O)C(C)C)C(=O)N[C@@H](C)C(=O)N[C@@H](Cc1c[nH]c2ccccc12)C(=O)N[C@@H](CC(C)C)C(=O)N[C@H](C(=O)N[C@@H](CCCCN)C(=O)NCC(=O)N[C@H](C(=O)NCC(=O)N[C@@H](CCC(=O)O)C(=O)N[C@@H](Cc1ccccc1)C(=O)N[C@@H](CC(C)C)C(N)=O)C(C)C)C(C)C` [Compound 75] the “4 h Cholesterol Efflux Emax” value was 68%. For `CC[C@H](C)[C@H](NC(=O)[C@H](Cc1ccccc1)NC(=O)[C@H](CCC(=O)O)NC(=O)[C@H](CCCCN)NC(=O)[C@@H](NC(=O)[C@H](C)NC(=O)[C@H](CCC(=O)O)NC(=O)CNC(=O)[C@H](CCC(=O)O)NC(=O)[C@H](CC(C)C)NC(=O)[C@H](Cc1ccc(O)cc1)NC(=O)[C@H](CO)NC(=O)[C@H](CO)NC(=O)[C@@H](NC(=O)[C@H](CC(=O)O)NC(=O)[C@H](CO)NC(=O)[C@@H](NC(=O)[C@H](Cc1ccccc1)NC(=O)[C@@H](NC(=O)CNC(=O)[C@H](CCC(=O)O)NC(=O)C(C)(C)NC(=O)[C@@H](N)Cc1c[nH]cn1)[C@@H](C)O)[C@@H](C)O)C(C)C)C(C)C)C(=O)N[C@@H](C)C(=O)N[C@@H](Cc1c[nH]c2ccccc12)C(=O)N[C@@H](CC(C)C)C(=O)N[C@H](C(=O)N[C@@H](CCC(=O)O)C(=O)N[C@@H](CCCCN)C(=O)NC(C)(C)C(=O)N[C@@H](CC(C)C)C(=O)N[C@@H](CO)C(=O)N[C@@H](Cc1ccccc1)C(=O)N[C@@H](CC(C)C)C(N)=O)C(C)C` [Compound 88] (H-H[Aib]EGTFTSDVSSYLEGEAVKEFIAWLVEK[Aib]LSFL-NH2), the “4 h Cholesterol Efflux Emax” value was 69%. With `CC[C@H](C)[C@H](NC(=O)[C@H](Cc1ccccc1)NC(=O)[C@H](CCC(=O)O)NC(=O)[C@H](CCCCN)NC(=O)[C@@H](NC(=O)[C@H](C)NC(=O)[C@H](CCCCN)NC(=O)CNC(=O)[C@H](CCC(=O)O)NC(=O)[C@H](CC(C)C)NC(=O)[C@H](Cc1ccc(O)cc1)NC(=O)[C@H](CO)NC(=O)[C@H](CO)NC(=O)[C@@H](NC(=O)[C@H](CC(=O)O)NC(=O)[C@H](CO)NC(=O)[C@@H](NC(=O)[C@H](Cc1ccccc1)NC(=O)[C@@H](NC(=O)CNC(=O)[C@H](CCC(=O)O)NC(=O)C(C)(C)NC(=O)[C@@H](N)Cc1c[nH]cn1)[C@@H](C)O)[C@@H](C)O)C(C)C)C(C)C)C(=O)N[C@@H](C)C(=O)N[C@@H](Cc1c[nH]c2ccccc12)C(=O)N[C@@H](CC(C)C)C(=O)N[C@H](C(=O)N[C@@H](CCC(=O)O)C(=O)N[C@@H](CCCCN)C(=O)NC(C)(C)C(=O)N[C@@H](CCCCN)C(=O)N[C@@H](CCC(=O)O)C(=O)N[C@@H](Cc1ccccc1)C(=O)N[C@@H](CC(C)C)C(N)=O)C(C)C` [Compound 90, [Aib8,Lys23,Val25,Glu34,Lys35,Aib36,Lys37]-GLP-1-(7-37)-peptidyl-Glu-Phe-Leu amide] (H-H[Aib]EGTFTSDVSSYLEGKAVKEFIAWLVEK[Aib]KEFL-NH2; N-terminus assumed) the “4 h Cholesterol Efflux Emax” value was 110%.
